Assay results: ChEMBL document CHEMBL1201862, “PubChem BioAssay data set” (2004)
Active and inactive are the calls of the source.

Tests used:
Cytochrome P450 3A4 = Cytochrome P450 3A4 (Homo sapiens, UniProt P08684); conditions: Potency;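 note: confirmatory qHTS run detecting inhibitors and substrates of CYP3A4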
[1] = target: Peroxisome proliferator-activated receptor gamma/Nuclear receptor coactivator 3 (Homo sapiens, UniProt P37231); assay: TR-FRET dose response biochemical High Throughput Screening assay for agonists of the steroid receptor coactivator 3 (SRC-3) recruitment by the peroxisome proliferator-activated receptor gamma (PPAR gamma): non-selective agonists. [Related pubchem assays: 1301 (Confirmation screen.), 1048 (Primary screen.)]; type: functional
[2] = target: Peroxisome proliferator-activated receptor gamma/Nuclear receptor coactivator 2 (Homo sapiens, UniProt P37231); assay: (§1) TR-FRET dose response biochemical High Throughput Screening assay for agonists of the steroid receptor coactivator 2 (SRC-2) recruitment by the peroxisome proliferator-activated receptor gamma (PPAR gamma): non-selective agonists. [Related pubchem assays: 1297, 1032 ]; type: functional
[3] = target: Peroxisome proliferator-activated receptor gamma/Nuclear receptor coactivator 1 (Homo sapiens, UniProt P37231); assay: as §1, with “1 (SRC-1)” for “2 (SRC-2)”, “assays (depositor defined):AID1300, AID1808, AID504735, AID631]” for “assays: 1297, 1032 ]”; type: protein assay
[4] = target: T1, Epstein-Barr nuclear antigen 1 (Epstein-Barr virus (strain B95-8) (HHV-4) (Human herpesvirus 4), UniProt P03211); assay: inhibition of EBV nuclear antigen 1 DNA binding – biochemical, fluorescence polarization, 1536-well, dose response (AID 2381); design: species or system human gammaherpesvirus 4;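 note: fluorescence polarization of a Cy5 DNA probe bound by EBNA-1 protein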
T1 sequence (P03211 whole entry): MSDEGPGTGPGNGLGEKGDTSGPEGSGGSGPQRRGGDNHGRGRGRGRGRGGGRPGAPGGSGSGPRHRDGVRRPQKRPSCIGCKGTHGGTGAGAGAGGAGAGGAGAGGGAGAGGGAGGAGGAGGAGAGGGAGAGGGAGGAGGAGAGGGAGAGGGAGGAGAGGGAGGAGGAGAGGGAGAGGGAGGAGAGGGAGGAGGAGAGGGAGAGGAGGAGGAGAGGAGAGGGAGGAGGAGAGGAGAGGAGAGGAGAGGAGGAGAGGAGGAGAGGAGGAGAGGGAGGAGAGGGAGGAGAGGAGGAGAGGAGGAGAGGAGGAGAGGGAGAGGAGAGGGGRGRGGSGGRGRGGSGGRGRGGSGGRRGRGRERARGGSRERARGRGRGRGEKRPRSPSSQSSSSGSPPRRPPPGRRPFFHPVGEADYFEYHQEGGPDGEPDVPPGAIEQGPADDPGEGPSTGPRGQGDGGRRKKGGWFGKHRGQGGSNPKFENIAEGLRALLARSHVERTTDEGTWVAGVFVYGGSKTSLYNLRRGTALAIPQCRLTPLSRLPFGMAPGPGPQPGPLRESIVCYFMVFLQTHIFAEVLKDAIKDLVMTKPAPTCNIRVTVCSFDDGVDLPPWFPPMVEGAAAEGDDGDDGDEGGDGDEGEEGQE

[5] = target: T2, Lytic switch protein BZLF1 (Epstein-Barr virus (strain B95-8) (HHV-4) (Human herpesvirus 4), UniProt P03206); assay: inhibition of BZLF1 ZTA DNA binding – biochemical, fluorescence polarization, Epstein-Barr virus, 1536-well, counter-screen for EBNA-1 inhibitor project, dose response (AID 2377); design: species or system human gammaherpesvirus 4;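 note: fluorescence polarization of Cy5-labelled ZRE DNA probe bound by purified Zta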
T2 sequence (P03206 whole entry): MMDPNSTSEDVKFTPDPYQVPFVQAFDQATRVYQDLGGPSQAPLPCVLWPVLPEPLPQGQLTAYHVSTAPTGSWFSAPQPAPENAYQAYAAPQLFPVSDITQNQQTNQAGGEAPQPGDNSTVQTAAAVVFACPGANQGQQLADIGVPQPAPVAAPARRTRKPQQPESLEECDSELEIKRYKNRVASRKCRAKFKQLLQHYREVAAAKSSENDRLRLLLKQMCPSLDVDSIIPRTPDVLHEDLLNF

[6] = HEK-293T cell viability reduction – luminescence, B-cell screen hits, cytotoxicity control for BCR NF-kB inhibitor project, dose response (AID 489021); type: functional, cell-based;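 note: HEK-293T cells carrying an NF-kB luciferase reporter; cells exposed to compound for about 14 hours before viability readout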
[7] = target: Eukaryotic translation initiation factor 4H (Homo sapiens, UniProt Q15056); assay: eIF4H binding inhibition – biochemical, uHTS, fluorescence polarization, translation initiation inhibitor project, primary screen (AID 2012)
SUMO-activating enzyme [8] = target: T3, SUMO-activating enzyme (Homo sapiens, UniProt Q9UBT2); assay: blockers of UBC9-mediated SUMO conjugation – biochemical, AlphaScreen, SUMOylation inhibitor project, confirmation (AID 2018); type: functional
SUMO-activating enzyme [9] = target: T3, SUMO-activating enzyme; assay: blockers of SAE1/SAE2–UBC9 SUMO transfer – biochemical, HTRF, uHTS, primary screen (AID 2006); type: protein-complex assay
[10] = target: Serine/threonine-protein phosphatase PP1-alpha catalytic subunit (Homo sapiens, UniProt P62136); assay: inhibition of protein phosphatase 1 activity – biochemical, fluorescence, dose response (AID 2403);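 note: phosphatase turnover of OMFP into fluorescent 3-O-methylfluorescein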
[11] = target: T4, Serine/threonine-protein phosphatase (Homo sapiens, UniProt Q9BPW0); assay: Counterscreen for inhibitors of PP1: fluorescence-based biochemical high throughput dose response assay to identify inhibitors of Protein Phosphatase 5 (PP5). [Related pubchem assays: 2034 (Summary (PP5 inhibitors)), 1987 (PP5 inhibitors in singlate), 2235 (PP1 inhibitors in singlate)]
T4 sequence (Q9BPW0 whole entry): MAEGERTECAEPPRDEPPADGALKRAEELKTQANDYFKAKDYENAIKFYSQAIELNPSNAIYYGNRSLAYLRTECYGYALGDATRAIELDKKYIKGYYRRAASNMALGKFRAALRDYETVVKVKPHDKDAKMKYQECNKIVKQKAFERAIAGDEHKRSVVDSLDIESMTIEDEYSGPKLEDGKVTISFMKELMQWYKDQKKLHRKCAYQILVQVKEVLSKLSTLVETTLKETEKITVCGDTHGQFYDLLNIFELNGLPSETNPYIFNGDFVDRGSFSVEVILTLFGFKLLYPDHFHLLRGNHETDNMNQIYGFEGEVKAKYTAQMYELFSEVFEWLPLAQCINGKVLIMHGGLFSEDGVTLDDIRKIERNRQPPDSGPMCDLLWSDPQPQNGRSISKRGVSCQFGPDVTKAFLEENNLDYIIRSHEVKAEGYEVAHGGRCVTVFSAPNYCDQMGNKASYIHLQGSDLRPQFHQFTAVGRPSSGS

[12] = target: Polyadenylate-binding protein 1 (Homo sapiens, UniProt P11940); assay: blockers of PABP interaction with poly(A) – biochemical, fluorescence polarization, […] (AID 2014)
[13] = A Cell Based Secondary Assay To Explore Cytotoxicity of Compounds that Sensitize Mycobacterium Tuberculosis to Beta-Lactam Antibiotics.; type: functional
[14] = target: T5, Calpain-2 catalytic subunit (Sus scrofa, UniProt P43367); assay: m-calpain protease blockers, concentration series – biochemical, fluorogenic peptide substrate, dose response (AID 1420); type: functional
T5 sequence (P43367 whole entry): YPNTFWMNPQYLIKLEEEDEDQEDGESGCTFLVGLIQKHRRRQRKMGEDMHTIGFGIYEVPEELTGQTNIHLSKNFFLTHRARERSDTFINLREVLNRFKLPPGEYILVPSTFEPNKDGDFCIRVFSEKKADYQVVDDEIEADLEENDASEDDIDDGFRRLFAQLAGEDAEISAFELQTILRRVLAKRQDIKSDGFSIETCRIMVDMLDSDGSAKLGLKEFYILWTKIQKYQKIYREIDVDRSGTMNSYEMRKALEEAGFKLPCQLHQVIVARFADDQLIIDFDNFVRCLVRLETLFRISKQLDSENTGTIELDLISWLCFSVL

Streptococcus = assay: GAS UMAA2166 growth inhibition – luminescence, BacTiterGlo, counter-screen for streptokinase expression inhibitor project, dose response (AID 1915); type: functional, organism-based;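 note: potency for reduction of bacterial viability or growth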
[15] = system: Streptococcus sp. 'group A'; assay: Streptococcus pyogenes SK(-)GAS viability under kanamycin – luminescence, BacTiterGlo, confirmation, counter-screen for streptokinase expression inhibitor project, dose response (AID 1900); type: functional, organism-based
Streptokinase A = target: T6, Streptokinase A (Streptococcus pyogenes serotype M1, UniProt P10520); assay: viability-normalized secreted streptokinase activity reduction – plasminogen activation absorbance, OD405, dose response (AID 1914); type: functional, Streptococcus pyogenes M1 GAS;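 note: secreted streptokinase activity via plasminogen activation per viability signal from cell pellet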
T6 sequence (P10520 whole entry): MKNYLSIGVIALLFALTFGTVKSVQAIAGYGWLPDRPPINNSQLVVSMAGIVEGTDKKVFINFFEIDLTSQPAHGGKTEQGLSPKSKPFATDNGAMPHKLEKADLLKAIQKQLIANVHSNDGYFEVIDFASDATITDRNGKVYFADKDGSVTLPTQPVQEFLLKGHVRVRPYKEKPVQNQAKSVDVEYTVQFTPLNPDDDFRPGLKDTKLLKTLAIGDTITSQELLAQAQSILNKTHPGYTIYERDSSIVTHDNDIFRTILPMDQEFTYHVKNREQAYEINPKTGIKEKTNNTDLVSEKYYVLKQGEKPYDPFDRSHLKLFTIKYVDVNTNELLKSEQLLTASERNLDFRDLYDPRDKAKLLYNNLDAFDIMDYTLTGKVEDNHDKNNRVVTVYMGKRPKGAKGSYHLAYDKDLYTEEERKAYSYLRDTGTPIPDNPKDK

HeLa = assay: Cytotoxicity counterscreen assay for transcriptional activators of heat shock protein 70 (Hsp70). [Related pubchem assays: 1203, 1252 ]; type: functional; conditions: Homo sapiens;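 note: cells exposed to compound for 16 hours before readout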

T3 sequence (Q9UBE0 whole entry): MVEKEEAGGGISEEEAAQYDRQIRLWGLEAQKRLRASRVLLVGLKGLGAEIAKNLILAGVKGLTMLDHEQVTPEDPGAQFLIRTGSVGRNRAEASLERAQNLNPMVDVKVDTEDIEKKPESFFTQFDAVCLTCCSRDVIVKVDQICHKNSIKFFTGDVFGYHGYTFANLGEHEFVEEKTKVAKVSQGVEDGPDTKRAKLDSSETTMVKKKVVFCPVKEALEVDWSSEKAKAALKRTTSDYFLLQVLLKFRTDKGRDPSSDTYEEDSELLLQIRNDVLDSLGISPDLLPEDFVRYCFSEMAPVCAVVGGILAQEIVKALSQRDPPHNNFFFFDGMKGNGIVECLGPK
T3 sequence (Q9UBT2 whole entry): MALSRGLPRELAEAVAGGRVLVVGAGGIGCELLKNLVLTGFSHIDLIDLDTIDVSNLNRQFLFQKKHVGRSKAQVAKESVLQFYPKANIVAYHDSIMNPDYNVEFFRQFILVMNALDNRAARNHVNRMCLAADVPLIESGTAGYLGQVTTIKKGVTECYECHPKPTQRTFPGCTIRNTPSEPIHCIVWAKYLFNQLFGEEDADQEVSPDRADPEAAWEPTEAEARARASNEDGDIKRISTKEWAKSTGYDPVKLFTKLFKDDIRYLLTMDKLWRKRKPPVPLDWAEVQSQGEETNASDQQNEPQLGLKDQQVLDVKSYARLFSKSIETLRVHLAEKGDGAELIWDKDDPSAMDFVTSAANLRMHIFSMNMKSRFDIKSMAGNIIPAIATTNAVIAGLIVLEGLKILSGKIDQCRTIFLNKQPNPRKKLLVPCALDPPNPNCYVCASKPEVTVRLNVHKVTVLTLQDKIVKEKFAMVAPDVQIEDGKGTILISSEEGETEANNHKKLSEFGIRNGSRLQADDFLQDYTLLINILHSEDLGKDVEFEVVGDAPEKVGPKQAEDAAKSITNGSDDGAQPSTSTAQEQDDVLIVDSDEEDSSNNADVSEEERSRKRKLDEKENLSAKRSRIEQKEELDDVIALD
Chain of Serine/threonine-protein phosphatase PP1-alpha catalytic subunit (P62136 whole entry): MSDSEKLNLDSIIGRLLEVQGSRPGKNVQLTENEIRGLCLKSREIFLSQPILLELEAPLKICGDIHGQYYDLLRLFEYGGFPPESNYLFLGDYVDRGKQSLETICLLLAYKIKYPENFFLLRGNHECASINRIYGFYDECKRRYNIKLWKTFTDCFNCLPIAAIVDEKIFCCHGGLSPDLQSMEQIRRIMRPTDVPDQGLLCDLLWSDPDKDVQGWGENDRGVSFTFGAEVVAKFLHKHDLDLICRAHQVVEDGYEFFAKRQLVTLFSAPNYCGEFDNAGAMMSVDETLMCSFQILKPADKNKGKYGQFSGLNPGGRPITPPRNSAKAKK
Chain of Cytochrome P450 3A4 (P08684 whole entry): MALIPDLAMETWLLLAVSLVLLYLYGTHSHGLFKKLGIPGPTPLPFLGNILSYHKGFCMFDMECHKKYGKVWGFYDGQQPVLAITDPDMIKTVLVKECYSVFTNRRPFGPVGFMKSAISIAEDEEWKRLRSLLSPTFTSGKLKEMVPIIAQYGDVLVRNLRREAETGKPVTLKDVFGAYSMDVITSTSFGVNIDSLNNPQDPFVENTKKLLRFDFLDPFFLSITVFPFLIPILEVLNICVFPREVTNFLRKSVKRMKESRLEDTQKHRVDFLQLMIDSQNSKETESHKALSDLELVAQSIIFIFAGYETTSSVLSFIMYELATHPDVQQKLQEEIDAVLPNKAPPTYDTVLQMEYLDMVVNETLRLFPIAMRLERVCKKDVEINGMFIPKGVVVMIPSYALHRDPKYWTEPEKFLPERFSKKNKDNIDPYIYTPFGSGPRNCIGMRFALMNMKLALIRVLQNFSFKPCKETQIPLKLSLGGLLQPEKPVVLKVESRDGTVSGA
Chain of Peroxisome proliferator-activated receptor gamma/Nuclear receptor coactivator 3 (P37231 whole entry): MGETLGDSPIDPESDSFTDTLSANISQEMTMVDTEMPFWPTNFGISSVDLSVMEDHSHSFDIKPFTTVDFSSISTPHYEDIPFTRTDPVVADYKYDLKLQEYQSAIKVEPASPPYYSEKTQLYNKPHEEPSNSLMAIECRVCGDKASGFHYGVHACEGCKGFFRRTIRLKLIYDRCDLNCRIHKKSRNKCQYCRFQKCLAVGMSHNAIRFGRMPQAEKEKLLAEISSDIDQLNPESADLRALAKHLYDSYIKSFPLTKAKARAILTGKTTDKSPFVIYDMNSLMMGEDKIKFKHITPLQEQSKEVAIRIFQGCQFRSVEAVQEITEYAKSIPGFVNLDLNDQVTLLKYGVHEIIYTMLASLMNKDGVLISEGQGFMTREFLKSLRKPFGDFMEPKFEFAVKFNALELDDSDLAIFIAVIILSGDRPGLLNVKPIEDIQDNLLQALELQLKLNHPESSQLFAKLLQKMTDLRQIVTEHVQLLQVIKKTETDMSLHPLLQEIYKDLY
Chain of Peroxisome proliferator-activated receptor gamma/Nuclear receptor coactivator 3 (Q9Y6Q9 whole entry, further chain): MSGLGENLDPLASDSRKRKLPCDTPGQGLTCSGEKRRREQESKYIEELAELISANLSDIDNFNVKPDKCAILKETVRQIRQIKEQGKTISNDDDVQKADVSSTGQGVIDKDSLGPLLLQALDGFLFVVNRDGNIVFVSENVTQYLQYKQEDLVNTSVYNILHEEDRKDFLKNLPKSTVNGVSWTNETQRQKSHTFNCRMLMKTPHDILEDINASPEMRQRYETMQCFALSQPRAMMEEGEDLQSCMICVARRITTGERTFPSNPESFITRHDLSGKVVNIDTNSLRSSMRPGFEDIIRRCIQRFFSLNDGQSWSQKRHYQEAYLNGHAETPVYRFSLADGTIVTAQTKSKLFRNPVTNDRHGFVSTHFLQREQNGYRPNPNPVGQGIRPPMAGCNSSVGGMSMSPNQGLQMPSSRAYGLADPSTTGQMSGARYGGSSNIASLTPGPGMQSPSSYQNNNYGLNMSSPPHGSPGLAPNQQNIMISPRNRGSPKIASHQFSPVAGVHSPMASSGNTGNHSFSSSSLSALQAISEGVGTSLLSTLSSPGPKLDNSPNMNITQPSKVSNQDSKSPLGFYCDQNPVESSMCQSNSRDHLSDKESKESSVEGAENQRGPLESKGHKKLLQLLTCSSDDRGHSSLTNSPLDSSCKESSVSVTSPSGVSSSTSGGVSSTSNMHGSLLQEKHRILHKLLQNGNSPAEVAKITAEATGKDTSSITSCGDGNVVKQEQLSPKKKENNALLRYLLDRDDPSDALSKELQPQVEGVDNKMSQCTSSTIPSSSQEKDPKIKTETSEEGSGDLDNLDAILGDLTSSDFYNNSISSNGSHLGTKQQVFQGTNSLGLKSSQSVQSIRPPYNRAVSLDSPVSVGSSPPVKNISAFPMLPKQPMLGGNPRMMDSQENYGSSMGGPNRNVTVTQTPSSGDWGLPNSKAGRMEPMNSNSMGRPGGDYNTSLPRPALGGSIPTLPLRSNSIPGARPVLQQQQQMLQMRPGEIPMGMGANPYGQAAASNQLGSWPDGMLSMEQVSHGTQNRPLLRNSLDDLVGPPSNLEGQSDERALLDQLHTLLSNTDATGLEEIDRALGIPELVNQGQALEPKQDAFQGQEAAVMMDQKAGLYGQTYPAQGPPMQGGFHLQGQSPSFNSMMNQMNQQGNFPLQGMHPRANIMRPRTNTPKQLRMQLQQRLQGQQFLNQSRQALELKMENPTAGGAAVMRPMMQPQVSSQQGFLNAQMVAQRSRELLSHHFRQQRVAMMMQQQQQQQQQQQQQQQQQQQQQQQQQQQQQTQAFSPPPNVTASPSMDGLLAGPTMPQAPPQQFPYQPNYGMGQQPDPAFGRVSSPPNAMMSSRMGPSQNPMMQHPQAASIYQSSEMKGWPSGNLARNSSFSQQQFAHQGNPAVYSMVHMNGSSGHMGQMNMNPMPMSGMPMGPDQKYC
Chain of Polyadenylate-binding protein 1 (P11940 whole entry): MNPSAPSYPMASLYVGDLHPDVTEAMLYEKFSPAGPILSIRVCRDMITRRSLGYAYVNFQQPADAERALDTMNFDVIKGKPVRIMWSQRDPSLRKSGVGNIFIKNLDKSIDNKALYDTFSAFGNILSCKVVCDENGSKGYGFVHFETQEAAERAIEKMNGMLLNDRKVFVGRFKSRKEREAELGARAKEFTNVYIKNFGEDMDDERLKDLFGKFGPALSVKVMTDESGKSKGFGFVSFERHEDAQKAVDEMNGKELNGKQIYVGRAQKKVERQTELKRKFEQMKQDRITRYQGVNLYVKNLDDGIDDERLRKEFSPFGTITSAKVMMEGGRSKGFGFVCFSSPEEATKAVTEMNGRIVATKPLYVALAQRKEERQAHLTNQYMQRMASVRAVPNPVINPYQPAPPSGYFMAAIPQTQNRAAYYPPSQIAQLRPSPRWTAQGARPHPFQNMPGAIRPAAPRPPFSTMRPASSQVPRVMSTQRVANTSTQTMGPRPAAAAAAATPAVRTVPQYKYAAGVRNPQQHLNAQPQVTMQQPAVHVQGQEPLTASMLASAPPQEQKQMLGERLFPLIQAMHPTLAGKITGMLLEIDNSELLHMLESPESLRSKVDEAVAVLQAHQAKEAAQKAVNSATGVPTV

c1ccc(N2CCN(Cc3nc4ccccc4[nH]3)CC2)nc1
AC50 (Cytochrome P450 3A4): 25.1 µM (inconclusive)

O=C(CSc1ncnc2c1oc1ccccc12)Nc1cccc(F)c1
EC50 [1]: > 79.4 µM (not active)
EC50 [2]: 15.6 µM (not active)
EC50 [3]: > 26.5 µM (inactive)
IC50 [4]: > 148 µM (not active)
IC50 [5]: > 111 µM (not active)

COc1ccc(N=C(S)NCc2ccccc2)c(OC)c1
IC50 [6]: > 80 µM (inactive)

N#Cc1c(-c2ccc(Cl)cc2)cc(-c2cccs2)nc1SCC(=O)O
IC50 [7]: 10.7 µM (active)
IC50 (SUMO-activating enzyme [8]): 8.73 µM (active)
IC50 (SUMO-activating enzyme [9]): > 100 µM (inactive)
IC50 [10]: 6.66 µM (active)
IC50 [11]: > 67 µM (not active)
IC50 [12]: 39.7 µM (active)

CCc1ccc2c(c1)C(c1ccc([N+](=O)[O-])cc1)=NNC(c1ccc(C)cc1)=N2
CC50 [13]: > 40 µM (active)
IC50 [14]: 15.6 µM (not active)

Cn1c(O)c(N=NC(=O)c2cc(-c3cccs3)nc3ccccc23)c2ccccc21
EC50 (Streptococcus): 16.7 µM (active)
EC50 [15]: 9.12 µM (active)
EC50 (Streptokinase A): > 150 µM (not active)
IC50 [4]: 2.73 µM (active)
IC50 [5]: > 111 µM (not active)

COCCn1c(C)cc(C(=O)CSc2nc3ccccc3c(=O)n2C(C)COC)c1C (stereo unspecified)
CC50 (HeLa): > 99 µM (not active)
